Target: T1, Heparanase (Homo sapiens, UniProt Q9Y251)
T1 sequence (Q9Y251 whole entry): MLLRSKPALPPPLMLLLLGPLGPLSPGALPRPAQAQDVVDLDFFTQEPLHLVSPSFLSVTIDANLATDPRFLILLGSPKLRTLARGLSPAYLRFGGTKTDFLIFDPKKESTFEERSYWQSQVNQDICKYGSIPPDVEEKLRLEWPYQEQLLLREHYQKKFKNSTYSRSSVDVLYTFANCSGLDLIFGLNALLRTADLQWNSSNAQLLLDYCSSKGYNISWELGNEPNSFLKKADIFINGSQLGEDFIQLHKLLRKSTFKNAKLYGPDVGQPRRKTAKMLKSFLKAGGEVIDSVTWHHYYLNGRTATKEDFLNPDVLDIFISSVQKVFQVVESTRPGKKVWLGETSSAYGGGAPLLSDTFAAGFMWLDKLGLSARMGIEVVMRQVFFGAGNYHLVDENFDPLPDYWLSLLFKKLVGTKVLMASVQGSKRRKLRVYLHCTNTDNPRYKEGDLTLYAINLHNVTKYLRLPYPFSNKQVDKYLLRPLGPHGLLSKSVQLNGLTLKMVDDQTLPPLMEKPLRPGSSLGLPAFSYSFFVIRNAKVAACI
Assay: Inhibition of recombinant human heparanase assessed as fondaparinux cleavage by measuring disaccharide by colorimetric analysis

| IC50 [µM] | SMILES |
| --- | --- |
| 71.5 | CO[C@H]1O[C@H](COS(=O)(=O)O)[C@@H](O[C@H](O[C@H](C(=O)O)[C@H](O[C@H]2O[C@H](COS(=O)(=O)O)[C@@H](OC)[C@H](O)[C@H]2NS(=O)(=O)O)C(=O)O)C(=O)O)[C@H](O)[C@H]1NS(=O)(=O)O |
| 63.7 | CO[C@H]1O[C@H](COS(=O)(=O)O)[C@@H](O[C@@H](CO)O[C@@H](C(=O)O)[C@H](CO)O[C@H]2O[C@H](COS(=O)(=O)O)[C@@H](O[C@@H](CO)O[C@@H](C(=O)O)[C@H](CO)OC)[C@H](O)[C@H]2NS(=O)(=O)O)[C@H](O)[C@H]1NS(=O)(=O)O |
| 37.9 | CO[C@H]1O[C@H](COS(=O)(=O)O)[C@@H](O[C@@H](CO)O[C@@H](C(=O)O)[C@@H](CO)O[C@H]2O[C@H](COS(=O)(=O)O)[C@@H](OC)[C@H](O)[C@H]2NS(=O)(=O)O)[C@H](O)[C@H]1NS(=O)(=O)O |
| > 85.3 | CO[C@H]1O[C@H](COS(=O)(=O)O)[C@@H](O[C@@H]2O[C@@H](C(=O)O)[C@@H](O[C@H]3O[C@H](COS(=O)(=O)O)[C@@H](O[C@@H]4O[C@@H](C(=O)O)[C@@H](OC)[C@H](O)[C@H]4O)[C@H](O)[C@H]3NS(=O)(=O)O)[C@H](O)[C@H]2O)[C@H](O)[C@H]1NS(=O)(=O)O |
| > 103 | CO[C@H]1O[C@H](COS(=O)(=O)O)[C@@H](O[C@@H]2O[C@H](C(=O)O)[C@@H](O[C@H]3O[C@H](COS(=O)(=O)O)[C@@H](OC)[C@H](O)[C@H]3NS(=O)(=O)O)[C@H](O)[C@H]2O)[C@H](O)[C@H]1NS(=O)(=O)O |
| > 103 | CO[C@H]1O[C@H](COS(=O)(=O)O)[C@@H](O[C@@H]2O[C@@H](C(=O)O)[C@@H](O[C@H]3O[C@H](COS(=O)(=O)O)[C@@H](OC)[C@H](O)[C@H]3NS(=O)(=O)O)[C@H](O)[C@H]2O)[C@H](O)[C@H]1NS(=O)(=O)O |
| 7.57 | CO[C@H]1O[C@H](COS(=O)(=O)O)[C@@H](O[C@H](O[C@@H](C(=O)O)[C@@H](O[C@H]2O[C@H](COS(=O)(=O)O)[C@@H](O[C@H](O[C@@H](C(=O)O)[C@@H](OC)C(=O)O)C(=O)O)[C@H](O)[C@H]2NS(=O)(=O)O)C(=O)O)C(=O)O)[C@H](O)[C@H]1NS(=O)(=O)O |
| > 95.4 | CO[C@H]1O[C@H](COS(=O)(=O)O)[C@@H](O[C@H](O[C@@H](C(=O)O)[C@H](O[C@H]2O[C@H](COS(=O)(=O)O)[C@@H](OC)[C@H](O)[C@H]2NS(=O)(=O)O)C(=O)O)C(=O)O)[C@H](O)[C@H]1NS(=O)(=O)O |
| 76.8 | CO[C@H]1O[C@H](COS(=O)(=O)O)[C@@H](O[C@@H](CO)O[C@H](C(=O)O)[C@@H](CO)O[C@H]2O[C@H](COS(=O)(=O)O)[C@@H](OC)[C@H](O)[C@H]2NS(=O)(=O)O)[C@H](O)[C@H]1NS(=O)(=O)O |
